Measurements: the NIST ThermoML archive (doi:10.1021/acs.jced.7b00347)

Assay: mn = molality of the nth substance listed, in mol/kg
Conditions: for electrical conductivity: 100 kPa, Liquid, Alternating current cell with electrodes; for surface tension liquid-gas: Ring tensiometer

CCCCCCCCC[NH+](CCO)CC(C)O.[Cl-] (stereo not drawn) + O
Conditions | electrical conductivity [S/m] | surface tension liquid-gas [mN/m]
298.15 K, m1 = 0.0008607 | 0.00345 | –
298.15 K, m1 = 0.0008869 | 0.00352 | –
303.15 K, m1 = 1.77e-05 | 0.00064 | –
303.15 K, m1 = 1.774e-05 | – | 51.35
303.15 K, m1 = 3.548e-05 | – | 46.22
303.15 K, m1 = 3.66e-05 | 0.000736 | –
303.15 K, m1 = 5.54e-05 | 0.000832 | –
303.15 K, m1 = 7.43e-05 | 0.000928 | –
303.15 K, m1 = 8.87e-05 | – | 38.79
303.15 K, m1 = 9.31e-05 | 0.00102 | –
303.15 K, m1 = 0.000112 | 0.00112 | –
303.15 K, m1 = 0.0001308 | 0.00122 | –
303.15 K, m1 = 0.0001497 | 0.00131 | –
303.15 K, m1 = 0.0001685 | 0.00141 | –
303.15 K, m1 = 0.0001774 | – | 33.47
303.15 K, m1 = 0.0001874 | 0.00151 | –
303.15 K, m1 = 0.0002062 | 0.0016 | –
303.15 K, m1 = 0.0002251 | 0.0017 | –
303.15 K, m1 = 0.0002439 | 0.00179 | –
303.15 K, m1 = 0.0002628 | 0.00189 | –
303.15 K, m1 = 0.0002661 | – | 30.23
303.15 K, m1 = 0.0002816 | 0.00199 | –
303.15 K, m1 = 0.0003004 | 0.00208 | –
303.15 K, m1 = 0.0003193 | 0.00218 | –
303.15 K, m1 = 0.0003229 | – | 29.48
303.15 K, m1 = 0.0003451 | 0.00227 | –
303.15 K, m1 = 0.0003548 | – | 29.41
303.15 K, m1 = 0.0003709 | 0.00236 | –
303.15 K, m1 = 0.0003967 | 0.00245 | –
303.15 K, m1 = 0.0004225 | 0.00254 | –
303.15 K, m1 = 0.0004483 | 0.00263 | –
303.15 K, m1 = 0.0004741 | 0.00272 | –
303.15 K, m1 = 0.0004999 | 0.00281 | –
303.15 K, m1 = 0.0005257 | 0.00291 | –
303.15 K, m1 = 0.0005515 | 0.003 | –
303.15 K, m1 = 0.0005773 | 0.00309 | –
303.15 K, m1 = 0.0006031 | 0.00318 | –
303.15 K, m1 = 0.0006289 | 0.00327 | –
303.15 K, m1 = 0.0006547 | 0.00336 | –
303.15 K, m1 = 0.0006805 | 0.00345 | –
303.15 K, m1 = 0.0007063 | 0.00354 | –
303.15 K, m1 = 0.0007321 | 0.00363 | –
303.15 K, m1 = 0.0007579 | 0.00372 | –
303.15 K, m1 = 0.0007837 | 0.00381 | –
303.15 K, m1 = 0.0008095 | 0.00391 | –
303.15 K, m1 = 0.0008353 | 0.004 | –
303.15 K, m1 = 0.0008611 | 0.00409 | –
303.15 K, m1 = 0.0008869 | 0.00418 | –
303.15 K, m1 = 0.000887 | – | 28.48
303.15 K, m1 = 0.001774 | – | 28.01
303.15 K, m1 = 0.002661 | – | 27.82
303.15 K, m1 = 0.003547 | – | 27.65
308.15 K, m1 = 8.869e-06 | – | 52.23
308.15 K, m1 = 1.77e-05 | 0.00074 | –
308.15 K, m1 = 1.774e-05 | – | 47.19
308.15 K, m1 = 3.42e-05 | 0.000841 | –
308.15 K, m1 = 3.548e-05 | – | 42.29
308.15 K, m1 = 5.07e-05 | 0.000941 | –
308.15 K, m1 = 6.72e-05 | 0.00104 | –
308.15 K, m1 = 8.36e-05 | 0.00114 | –
308.15 K, m1 = 8.87e-05 | – | 35.88
308.15 K, m1 = 0.0001001 | 0.00124 | –
308.15 K, m1 = 0.0001166 | 0.00134 | –
308.15 K, m1 = 0.000133 | 0.00144 | –
308.15 K, m1 = 0.0001495 | 0.00154 | –
308.15 K, m1 = 0.000166 | 0.00165 | –
308.15 K, m1 = 0.0001774 | – | 30.89
308.15 K, m1 = 0.0001825 | 0.00175 | –
308.15 K, m1 = 0.0001989 | 0.00185 | –
308.15 K, m1 = 0.0002154 | 0.00195 | –
308.15 K, m1 = 0.0002319 | 0.00205 | –
308.15 K, m1 = 0.0002483 | 0.00215 | 28.73
308.15 K, m1 = 0.0002732 | – | 28.57
308.15 K, m1 = 0.0002803 | 0.00229 | –
308.15 K, m1 = 0.0003122 | 0.00243 | –
308.15 K, m1 = 0.0003441 | 0.00257 | –
308.15 K, m1 = 0.0003548 | – | 28.44
308.15 K, m1 = 0.0003761 | 0.00271 | –
308.15 K, m1 = 0.000408 | 0.00285 | –
308.15 K, m1 = 0.0004399 | 0.00299 | –
308.15 K, m1 = 0.0004718 | 0.00313 | –
308.15 K, m1 = 0.0005038 | 0.00327 | –
308.15 K, m1 = 0.0005357 | 0.00341 | –
308.15 K, m1 = 0.0005676 | 0.00356 | –
308.15 K, m1 = 0.0005996 | 0.00369 | –
308.15 K, m1 = 0.0006315 | 0.00384 | –
308.15 K, m1 = 0.0006634 | 0.00398 | –
308.15 K, m1 = 0.0006954 | 0.00412 | –
308.15 K, m1 = 0.0007273 | 0.00426 | –
308.15 K, m1 = 0.0007592 | 0.0044 | –
308.15 K, m1 = 0.0007911 | 0.00454 | –
308.15 K, m1 = 0.0008231 | 0.00468 | –
308.15 K, m1 = 0.000855 | 0.00482 | –
308.15 K, m1 = 0.0008869 | 0.00496 | –
308.15 K, m1 = 0.000887 | – | 27.73
308.15 K, m1 = 0.001774 | – | 27.41
308.15 K, m1 = 0.002661 | – | 27.23
